Test results as given in US10392391B2 (Vertex Pharmaceuticals Incorporated, priority 2012, dated 2019).
pKi: −log10 of the molar value.

Biological target: ATR kinase (full-length ATR) (Homo sapiens (Human), UniProt Q13535)
Assay: ATR inhibition assay (radioactive-phosphate incorporation)
Format: biochemical
Conditions: not given
How it was run: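 Ki(app) was fitted by non-linear regression to background-corrected initial rates. Full-length ATR (5 nM) phosphorylated 800 μM peptide using 10 μM [γ-33P]ATP at 25° C in Tris/HCl pH 7.5 buffer with MgCl2, DTT and 7% DMSO. After 10-minute compound pre-incubation and 24-hour reaction, phosphocellulose filters were scintillation counted.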

ATR kinase (full-length ATR), sequence (Q13535 whole entry): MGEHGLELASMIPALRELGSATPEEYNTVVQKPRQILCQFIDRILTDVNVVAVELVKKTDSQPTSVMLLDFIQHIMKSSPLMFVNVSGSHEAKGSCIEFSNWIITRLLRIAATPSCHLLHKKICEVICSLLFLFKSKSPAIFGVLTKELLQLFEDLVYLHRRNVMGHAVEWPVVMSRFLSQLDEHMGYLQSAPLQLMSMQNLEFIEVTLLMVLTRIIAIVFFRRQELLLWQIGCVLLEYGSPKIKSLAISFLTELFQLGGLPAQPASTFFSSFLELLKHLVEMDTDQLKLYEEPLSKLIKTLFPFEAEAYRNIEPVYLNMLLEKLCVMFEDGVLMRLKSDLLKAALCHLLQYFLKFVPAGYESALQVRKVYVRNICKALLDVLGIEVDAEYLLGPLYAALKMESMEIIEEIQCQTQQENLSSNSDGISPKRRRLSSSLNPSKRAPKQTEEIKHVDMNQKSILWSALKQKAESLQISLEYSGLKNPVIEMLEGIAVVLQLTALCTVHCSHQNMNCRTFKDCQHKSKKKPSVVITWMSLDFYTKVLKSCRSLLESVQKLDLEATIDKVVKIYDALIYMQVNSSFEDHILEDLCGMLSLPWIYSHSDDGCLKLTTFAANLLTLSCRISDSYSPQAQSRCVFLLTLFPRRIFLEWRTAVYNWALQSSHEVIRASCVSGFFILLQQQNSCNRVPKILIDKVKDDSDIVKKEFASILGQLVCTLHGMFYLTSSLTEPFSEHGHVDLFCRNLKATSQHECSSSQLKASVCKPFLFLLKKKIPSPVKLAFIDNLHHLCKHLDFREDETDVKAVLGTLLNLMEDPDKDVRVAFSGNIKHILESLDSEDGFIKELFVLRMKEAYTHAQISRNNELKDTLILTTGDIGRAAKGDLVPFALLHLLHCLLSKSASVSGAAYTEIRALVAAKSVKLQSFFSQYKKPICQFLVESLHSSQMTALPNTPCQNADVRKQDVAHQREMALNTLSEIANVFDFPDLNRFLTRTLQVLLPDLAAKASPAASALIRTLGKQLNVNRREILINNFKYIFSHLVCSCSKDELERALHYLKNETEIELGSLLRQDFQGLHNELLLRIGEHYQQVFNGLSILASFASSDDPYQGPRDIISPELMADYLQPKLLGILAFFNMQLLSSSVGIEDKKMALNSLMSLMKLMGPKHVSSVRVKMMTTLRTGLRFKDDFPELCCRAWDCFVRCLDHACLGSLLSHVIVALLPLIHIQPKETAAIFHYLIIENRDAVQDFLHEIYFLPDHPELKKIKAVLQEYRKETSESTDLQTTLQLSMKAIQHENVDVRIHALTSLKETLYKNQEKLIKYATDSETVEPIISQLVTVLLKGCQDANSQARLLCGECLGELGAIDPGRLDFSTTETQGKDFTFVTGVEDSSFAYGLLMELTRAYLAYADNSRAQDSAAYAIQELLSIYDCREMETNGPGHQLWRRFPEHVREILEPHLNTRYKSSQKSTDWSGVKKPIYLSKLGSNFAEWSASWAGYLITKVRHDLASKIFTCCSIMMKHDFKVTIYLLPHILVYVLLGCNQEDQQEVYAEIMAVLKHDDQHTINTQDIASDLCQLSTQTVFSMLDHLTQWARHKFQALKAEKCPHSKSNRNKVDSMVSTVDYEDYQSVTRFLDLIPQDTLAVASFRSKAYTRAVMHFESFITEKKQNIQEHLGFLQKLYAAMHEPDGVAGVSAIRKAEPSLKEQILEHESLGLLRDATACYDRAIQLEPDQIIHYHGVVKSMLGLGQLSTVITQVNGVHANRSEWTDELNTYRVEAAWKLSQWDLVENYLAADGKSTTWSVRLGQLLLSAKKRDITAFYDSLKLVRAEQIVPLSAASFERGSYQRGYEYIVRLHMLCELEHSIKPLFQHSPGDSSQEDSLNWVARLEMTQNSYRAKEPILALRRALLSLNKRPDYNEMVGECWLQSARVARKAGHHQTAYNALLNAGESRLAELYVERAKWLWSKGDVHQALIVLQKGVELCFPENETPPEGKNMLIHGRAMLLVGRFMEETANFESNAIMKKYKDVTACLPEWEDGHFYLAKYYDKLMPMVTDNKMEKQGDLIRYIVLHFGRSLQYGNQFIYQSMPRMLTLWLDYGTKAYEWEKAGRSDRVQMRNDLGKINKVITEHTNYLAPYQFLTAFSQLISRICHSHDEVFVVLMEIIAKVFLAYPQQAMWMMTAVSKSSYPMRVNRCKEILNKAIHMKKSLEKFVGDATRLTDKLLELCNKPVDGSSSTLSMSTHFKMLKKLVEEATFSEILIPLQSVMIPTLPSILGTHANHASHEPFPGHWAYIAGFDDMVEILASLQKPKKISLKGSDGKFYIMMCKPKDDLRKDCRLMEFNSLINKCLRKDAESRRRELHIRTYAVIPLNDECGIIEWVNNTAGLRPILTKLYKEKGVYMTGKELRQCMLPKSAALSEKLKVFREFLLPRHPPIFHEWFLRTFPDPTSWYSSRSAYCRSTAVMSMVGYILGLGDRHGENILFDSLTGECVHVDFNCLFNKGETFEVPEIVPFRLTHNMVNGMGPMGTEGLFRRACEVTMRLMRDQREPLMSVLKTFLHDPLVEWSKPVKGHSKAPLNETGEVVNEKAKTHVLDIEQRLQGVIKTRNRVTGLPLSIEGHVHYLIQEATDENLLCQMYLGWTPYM

Row | pKi | SMILES
1 | 5.30 to 6.00 | CN1CCN(c2c(F)cncc2NC(=O)c2c(N)nn3cc(C(C)(C)C#N)cnc23)CC1 [I-N-138, 2-amino-6-(2-cyanopropan-2-yl)-N-(5-fluoro-4-(4-methylpiperazin-1-yl)pyridin-3-yl)pyrazolo[1,5-a]pyrimidine-3-carboxamide]
2 | 5.30 to 6.00 | CC(C)(C#N)c1cnc2c(C(=O)Nc3cnccc3N3CCN(C4COC4)CC3)c(N)nn2c1 [I-N-142, 2-amino-6-(2-cyanopropan-2-yl)-N-(4-(4-(oxetan-3-yl)piperazin-1-yl)pyridin-3-yl)pyrazolo[1,5-a]pyrimidine-3-carboxamide]
3 | 5.30 to 6.00 | CC(C)(C#N)c1cnc2c(C(=O)Nc3cncc(F)c3N3CCN(C4COC4)CC3)c(N)nn2c1 [I-N-144]
4 | 5.30 to 6.00 | CN1CCN(C2CCN(c3c(F)cncc3NC(=O)c3c(N)nn4cc(F)cnc34)CC2)C(=O)C1 [I-N-151, 2-amino-6-fluoro-N-(5-fluoro-4-(4-(4-methyl-2-oxopiperazin-1-yl)piperidin-1-yl)pyridin-3-yl)pyrazolo[1,5-a]pyrimidine-3-carboxamide]

Same assay, conditions: Ki(app), 5 nM full-length ATR, 10 μM ATP, 25° C.

Row | SMILES | pKi
5 | CC(C)(O)CN1CCN(c2c(F)cncc2NC(=O)c2c(N)nn3cc(F)cnc23)CC1 [I-N-139, 2-amino-6-fluoro-N-(5-fluoro-4-(4-(2-hydroxy-2-methylpropyl)piperazin-1-yl)pyridin-3-yl)pyrazolo[1,5-a]pyrimidine-3-carboxamide] | 6.00 to 8.00
6 | CN1CCN(C(=O)N2CCN(c3c(F)cncc3NC(=O)c3c(N)nn4cc(F)cnc34)CC2)CC1 [I-N-140, 2-amino-6-fluoro-N-(5-fluoro-4-(4-(4-methylpiperazine-1-carbonyl)piperazin-1-yl)pyridin-3-yl)pyrazolo[1,5-a]pyrimidine-3-carboxamide] | 6.00 to 8.00
7 | CC(C#N)c1cnc2c(C(=O)Nc3cnccc3N3CCN(C4COC4)CC3)c(N)nn2c1 (centres unmarked) [I-N-143, 2-amino-6-(1-cyanoethyl)-N-(4-(4-(oxetan-3-yl)piperazin-1-yl)pyridin-3-yl)pyrazolo[1,5-a]pyrimidine-3-carboxamide] | 6.00 to 8.00
8 | CC(C#N)c1cnc2c(C(=O)Nc3cncc(F)c3N3CCN(C4COC4)CC3)c(N)nn2c1 (centres unmarked) [I-N-145] | 6.00 to 8.00
9 | CN(C)S(=O)(=O)C1CCN(c2c(F)cncc2NC(=O)c2c(N)nn3cc(F)cnc23)CC1 [I-N-146, 2-amino-N-(4-(4-(N,N-dimethylsulfamoyl)piperidin-1-yl)-5-fluoropyridin-3-yl)-6-fluoropyrazolo[1,5-a]pyrimidine-3-carboxamide] | 6.00 to 8.00
10 | Nc1nn2cc(F)cnc2c1C(=O)Nc1cncc(F)c1N1CCC(N2CCCC2=O)CC1 [I-N-147, 2-amino-6-fluoro-N-(5-fluoro-4-(4-(2-oxopyrrolidin-1-yl)piperidin-1-yl)pyridin-3-yl)pyrazolo[1,5-a]pyrimidine-3-carboxamide] | 6.00 to 8.00
11 | CN1CCC(N(C)S(=O)(=O)C2CCN(c3c(F)cncc3NC(=O)c3c(N)nn4cc(F)cnc34)CC2)CC1 [I-N-148, 2-amino-6-fluoro-N-(5-fluoro-4-(4-(N-methyl-N-(1-methylpiperidin-4-yl)sulfamoyl)piperidin-1-yl)pyridin-3-yl)pyrazolo[1,5-a]pyrimidine-3-carboxamide] | 6.00 to 8.00
12 | Nc1nn2cc(F)cnc2c1C(=O)Nc1cncc(F)c1N1CCC(CN2CCOCC2)CC1 [I-N-149, 2-amino-6-fluoro-N-(5-fluoro-4-(4-(morpholinomethyl)piperidin-1-yl)pyridin-3-yl)pyrazolo[1,5-a]pyrimidine-3-carboxamide] | 6.00 to 8.00
13 | CN1CCN(CC2CCN(c3c(F)cncc3NC(=O)c3c(N)nn4cc(F)cnc34)CC2)CC1 [I-N-150, 2-amino-6-fluoro-N-(5-fluoro-4-(4-((4-methylpiperazin-1-yl)methyl)piperidin-1-yl)pyridin-3-yl)pyrazolo[1,5-a]pyrimidine-3-carboxamide] | 6.00 to 8.00
14 | CN1CCC(OC2CCN(c3ccncc3NC(=O)c3c(N)nn4cc(F)cnc34)CC2)CC1 [I-N-154, 2-amino-6-fluoro-N-(4-(4-((1-methylpiperidin-4-yl)oxy)piperidin-1-yl)pyridin-3-yl)pyrazolo[1,5-a]pyrimidine-3-carboxamide] | 6.00 to 8.00
15 | Nc1nn2cc(F)cnc2c1C(=O)Nc1cncc(F)c1N1CCC(S(=O)(=O)N2CCOCC2)CC1 [I-N-155, 2-amino-6-fluoro-N-(5-fluoro-4-(4-(morpholinosulfonyl)piperidin-1-yl)pyridin-3-yl)pyrazolo[1,5-a]pyrimidine-3-carboxamide] | 6.00 to 8.00
16 | CN1CCC(C(=O)N2CCN(c3c(F)cncc3NC(=O)c3c(N)nn4cc(F)cnc34)CC2)C1 (centres unmarked) [I-N-156, 2-amino-6-fluoro-N-(5-fluoro-4-(4-(1-methylpyrrolidine-3-carbonyl)piperazin-1-yl)pyridin-3-yl)pyrazolo[1,5-a]pyrimidine-3-carboxamide] | 6.00 to 8.00

Now from value to compound:

Row | pKi | SMILES
17 | 6.00 to 8.00 | CN1CCC[C@H]1C(=O)N1CCN(c2c(F)cncc2NC(=O)c2c(N)nn3cc(F)cnc23)CC1 [I-N-157, (S)-2-amino-6-fluoro-N-(5-fluoro-4-(4-(1-methylpyrrolidine-2-carbonyl)piperazin-1-yl)pyridin-3-yl)pyrazolo[1,5-a]pyrimidine-3-carboxamide]
18 | 6.00 to 8.00 | Nc1nn2cc(F)cnc2c1C(=O)Nc1cncc(F)c1N1CCN(S(=O)(=O)C2CCOCC2)CC1 [I-N-158, 2-amino-6-fluoro-N-(5-fluoro-4-(4-((tetrahydro-2H-pyran-4-yl)sulfonyl)piperazin-1-yl)pyridin-3-yl)pyrazolo[1,5-a]pyrimidine-3-carboxamide]
19 | 6.00 to 8.00 | Nc1nn2cc(F)cnc2c1C(=O)Nc1cncc(F)c1N1CCN(S(=O)(=O)C2CC2)CC1 [I-N-159, 2-amino-N-(4-(4-(cyclopropylsulfonyl)piperazin-1-yl)-5-fluoropyridin-3-yl)-6-fluoropyrazolo[1,5-a]pyrimidine-3-carboxamide]
20 | 6.00 to 8.00 | Nc1nn2cc(F)cnc2c1C(=O)Nc1cncc(F)c1N1CCN(C(=O)CN2CCC2)CC1 [I-N-160, 2-amino-N-(4-(4-(2-(azetidin-1-yl)acetyl)piperazin-1-yl)-5-fluoropyridin-3-yl)-6-fluoropyrazolo[1,5-a]pyrimidine-3-carboxamide]
21 | 6.00 to 8.00 | Cc1ncn(-c2ccncc2NC(=O)c2c(N)nn3cc(F)cnc23)n1 [I-N-161, 2-amino-6-fluoro-N-(4-(3-methyl-1H-1,2,4-triazol-1-yl)pyridin-3-yl)pyrazolo[1,5-a]pyrimidine-3-carboxamide]
22 | 6.00 to 8.00 | Cc1ncnn1-c1ccncc1NC(=O)c1c(N)nn2cc(F)cnc12 [I-N-162, 2-amino-6-fluoro-N-(4-(5-methyl-1H-1,2,4-triazol-1-yl)pyridin-3-yl)pyrazolo[1,5-a]pyrimidine-3-carboxamide]
23 | 6.00 to 8.00 | Nc1nn2cc(F)cnc2c1C(=O)Nc1cncc(F)c1N1CCN2C(=O)CCC2C1 (centres unmarked) [I-N-163, 2-amino-6-fluoro-N-(5-fluoro-4-(6-oxohexahydropyrrolo[1,2-a]pyrazin-2(1H)-yl)pyridin-3-yl)pyrazolo[1,5-a]pyrimidine-3-carboxamide]
24 | 6.00 to 8.00 | CN1CC(OC2CCN(c3ccncc3NC(=O)c3c(N)nn4cc(F)cnc34)CC2)C1 [I-N-164, 2-amino-6-fluoro-N-(4-(4-((1-methylazetidin-3-yl)oxy)piperidin-1-yl)pyridin-3-yl)pyrazolo[1,5-a]pyrimidine-3-carboxamide]
25 | 6.00 to 8.00 | CS(=O)(=O)C1CCN(c2c(F)cncc2NC(=O)c2c(N)nn3cc(F)cnc23)CC1 [I-N-165, 2-amino-6-fluoro-N-(5-fluoro-4-(4-(methylsulfonyl)piperidin-1-yl)pyridin-3-yl)pyrazolo[1,5-a]pyrimidine-3-carboxamide]
26 | 6.00 to 8.00 | Nc1nn2cc(F)cnc2c1C(=O)Nc1cncc(F)c1N1CCC(OCCN2CCCC2)CC1 [I-N-167, 2-amino-6-fluoro-N-(5-fluoro-4-(4-(2-(pyrrolidin-1-yl)ethoxy)piperidin-1-yl)pyridin-3-yl)pyrazolo[1,5-a]pyrimidine-3-carboxamide]
27 | 6.00 to 8.00 | Nc1nn2cc(F)cnc2c1C(=O)Nc1cncc(F)c1N1CCN(C(=O)C2CNC2)CC1 [I-N-168, 2-amino-N-(4-(4-(azetidine-3-carbonyl)piperazin-1-yl)-5-fluoropyridin-3-yl)-6-fluoropyrazolo[1,5-a]pyrimidine-3-carboxamide]
28 | 6.00 to 8.00 | Nc1nn2cc(F)cnc2c1C(=O)Nc1cncc(F)c1N1CCC(S(=O)(=O)N2CCC2)CC1 [I-N-169, 2-amino-N-(4-(4-(azetidin-1-ylsulfonyl)piperidin-1-yl)-5-fluoropyridin-3-yl)-6-fluoropyrazolo[1,5-a]pyrimidine-3-carboxamide]
29 | 6.00 to 8.00 | Nc1nn2cc(F)cnc2c1C(=O)Nc1cnccc1N1CCC(S(=O)(=O)N2CCOCC2)CC1 [I-N-170, 2-amino-6-fluoro-N-(4-(4-(morpholinosulfonyl)piperidin-1-yl)pyridin-3-yl)pyrazolo[1,5-a]pyrimidine-3-carboxamide]
30 | 6.00 to 8.00 | CN1CCN(CC2CCN(c3c(F)cncc3NC(=O)c3c(N)nn4cc(F)cnc34)CC2)CC1=O [I-N-171, 2-amino-6-fluoro-N-(5-fluoro-4-(4-((4-methyl-3-oxopiperazin-1-yl)methyl)piperidin-1-yl)pyridin-3-yl)pyrazolo[1,5-a]pyrimidine-3-carboxamide]
31 | 6.00 to 8.00 | Nc1nn2cc(F)cnc2c1C(=O)Nc1cncc(F)c1N1CCN(C(=O)C2CNCCO2)CC1 (centres unmarked) [I-N-172, 2-amino-6-fluoro-N-(5-fluoro-4-(4-(morpholine-2-carbonyl)piperazin-1-yl)pyridin-3-yl)pyrazolo[1,5-a]pyrimidine-3-carboxamide]
32 | 6.00 to 8.00 | CN1CCOC(C(=O)N2CCN(c3c(F)cncc3NC(=O)c3c(N)nn4cc(F)cnc34)CC2)C1 (centres unmarked) [I-N-174, 2-amino-6-fluoro-N-(5-fluoro-4-(4-(4-methylmorpholine-2-carbonyl)piperazin-1-yl)pyridin-3-yl)pyrazolo[1,5-a]pyrimidine-3-carboxamide]
